In patent USRE37534E1, “Pharmaceutical compositions” (BTG International Limited, priority 1982, dated 2002):
Blank lines part the entries; values can stand above or below the compound they belong to.

Columns and labels:
[1] = tested on: rat jejunal sac; test: Permeation of everted rat jejunal sac by iron complexes; type: in vitro ADME; settings: for Relative iron uptake, 15 minutes / Relative iron uptake, 60 minutes: relative to ferric chloride as 1
From the text: Rats (male Sprague Dawley, 60 g) were killed and the jejunum removed, everted and cut into three segments (4 cm length). […] The contents of the sac were counted for ^59Fe and measured spectrophotometrically. […] The procedure described above was used to compare the uptake of iron from buffer containing differing molar proportions of maltol:iron.

[2] = tested on: human erythrocytes; test: Permeation of iron complexes into human erythrocytes (59Fe distribution ratio); type: cell-based; settings: 37° C.; for Distribution ratio (concentration in erythrocytes/concentration in medium): 1 hour, pH 7.4
Protocol: Following this period of incubation an aliquot of the erythrocyte/medium mixture was placed above a layer of silicone oil (ρ=1.06) and the erythrocytes separated by centrifugation through the oil. The ^59Fe levels associated with the erythrocytes and the incubation medium were then counted and presented as a distribution ratio (concentration in erythrocytes/concentration in medium).

[3] = In vivo 59Fe uptake after administration into the duodenum of the rat; settings: 100 μg Fe into duodenum; for introduction of iron via the rat intestine (59Fe in organs), comparison: 1-6 hours, FIGS. 1-4
Protocol: Groups of rats (300-350 g) were anaesthetised with nembutal (0.25 ml) and then with ether. […] The abdominal well was then closed with a suture. […] In the case of the data for blood and sternum (bone marrow) the counts given are cpm/ml and cpm/g respectively, whilst in all other cases they are the total cpm counts.

[4] = Iron take-up in human subjects by whole body counting; type: in vivo; settings: for level of take-up of iron by whole body counting: normal subject
Protocol: Capsules containing 3:1 iron(III) maltol, […] were prepared according to the procedure of Example 7^(1) with the modification that at 3:1 molar ratio of maltol:iron was used (no free maltol therefore being present in the capsules) and that a proportion of the ferric chloride used in the preparation of the iron maltol was radiolabelled as ^59Fe. The capsules each contained 10 mg of iron, this amount being labelled with 1 microcurie of ^59Fe, and were subjected to a single coating procedure.
The test involved two normal subjects, i.e. not suffering from iron deficiency, one of whom took a 10 mg dose of iron (one capsule) and the other whom took a 20 mg does of iron (two capsules). The capsule or capsules were taken after fasting overnight and fasting was then continued for a further 2 hours. The take-up of iron by the subjects was followed by means of whole body counting, using a calibrated body counter, reading being taken 4 to 8 hours after ingestion of the capsules to establish a base level and then after 7 and 14 days. Excretion of iron by the subjects was followed through the counting, in a large volume counter calibrated for iron, of daily urine samples over 3 days and daily stool samples over 10 days.

[5] = Affinity / stability constant of ligand for iron(III); type: physicochemical
From the text: (§1) In order to solubilise iron(III) hydroxide, log Ksol must be greater than 0. The value of Ksol for maltol is 0.8 and this is also sufficiently large to prevent appreciable competition from phytate, phosphate, thiols and other potential ligands likely to occur in the intestinal lumen.

[6] = biological target: haemoglobin (Homo sapiens, UniProt P68871+P69905); test: Binding of 59Fe-labelled complex to haemoglobin (gel permeation column); settings: 59Fe-labelled complex 1 mM, NaCl 130 mM, pH 7.4
Protocol: (§2) The ability of the iron complex of maltol to bind to haemoglobin is investigated by studying the elution profile of a ^59Fe label when a mixture of haemoglobin and the ^59Fe-labeled complex (at 1 mM concentration) in NaCl (130 mM) buffered to pH 7.4 by Tris hydrochloride is applied to a PH-10 column (Sephadex G-10 gel permeation column—Pharmacia).

[7] = biological target: bovine serum albmen (BSA) (Bos taurus, UniProt P02769); test: Binding of complex to BSA (gel permeation column); settings: as haemoglobin procedure, pH 7.4
Protocol: as §2
The ability of the iron complex of maltol to bind to bovine serum albmen (BSA) is investigated through a similar procedure in which the complex is applied to a column with BSA rather than haemoglobin.

[8] = In vivo 59Fe blood kinetics and tissue distribution in the cat, intravenous; settings: for Net ^59Fe content (cpm/g) / Net total ^59Fe content (cpm): 2 μCi given, figures adjusted to 2.2×10^6 cpm
Protocol: Body temperature was monitored with a rectal thermometer.
The iron maltol complex (100 μg Fe) alone (3:1 molar ratio of maltol:iron) and together with a large excess of maltol (40:1 molar ratio of maltol:iron) was injected intravenously in separate experiments and 0.25 ml samples of blood were taken in intervals. The apparent volume of distribution of the compound was calculated by extrapolation of the log-linear blood concentration curve to zero.
The amount of ^59Fe administration in this experiment was 4 μCi or 2.2×10^6 cpm.

[9] = in vivo
From the text: (§3) In each animal the trachea was cannulated to maintain a clear airway and to allow positive pressure artificial respiration if necessary. The left femoral vien was cannulated for the intravenous administration of drugs and physiological saline solution. Arterial blood pressure was monitored by a Washington pressure transducer through a cannula inserted into the femoral artery of the right hind leg. Arterial blood samples were taken at appropriate intervals from a short cannula inserted into an external carotid artery. Body temperature was monitored with a rectal thermometer. Each animal was given heparin (1000 iu/kg) as anticoagulant and additional small amounts of pentobarbitone sodium if needed to maintain a satisfactory level of anaesthesia.
(§4) If those animals where the iron compounds were to be administered into the duodenum, a mid-line incision was made in the abdomen to reveal the intestines. A cannula was then inserted through a small cut such that its tip rested approximately 5 cm below the opening of the bile duct. The cannula was then sutured in place and the abdominal wall closed with stitches.
(§5) The iron maltol complex (100 μg Fe) was also administered to the duodenum of the cat in the presence of a 40 fold excess of maltol followed by 5 ml of 150 ml tris hydrochloride buffer (pH 7.4).

[10] = In vivo 59Fe blood level and tissue distribution in the cat, per duodenum; settings: 2.65×10^6 cpm administered
From the text: as §3, §4, §5

[11] = Ksol (ability to solubilise iron(III) hydroxide); type: physicochemical
From the text: as §1

[12] = Partition coefficient Kpart n-octanol / Tris hydrochloride; type: physicochemical; settings: pH 7.4
Protocol: An indication of the properties of a compound in this respect is provided by the value of the partition coefficient (Kpart) obtained on partition between n-octanol and Tris hydrochloride (20 mM, pH 7.4; Tris representing 2-amino-2-hydroxymethylpropane 1,3-diol) at 20° C. and expressed as the ratio (concentration of compound in organic phase)/(concentration of compound in aqueous phase).
The partition coefficient Kpart (concentration in n-octanol/concentration in aqueous phase) between n-octanol and Tris hydrochloride (20 mM, pH 7.4) of maltol and of its 3:1 iron complex is measured at 10^−4 M by spectrophotometry. Acid washed glassware is used throughout and, following mixing for 1 minute, the aqueous/n-octanol mixture is […] at 1000 g for 30 seconds. The two resulting phases are separated for a concentration determination by spectrophotometry on each. For maltol, the range 220-340 nm is used for the concentration determination whilst for the complex the range 340-640 nm is used.

Chain of bovine serum albmen (BSA) (P02769 25-607): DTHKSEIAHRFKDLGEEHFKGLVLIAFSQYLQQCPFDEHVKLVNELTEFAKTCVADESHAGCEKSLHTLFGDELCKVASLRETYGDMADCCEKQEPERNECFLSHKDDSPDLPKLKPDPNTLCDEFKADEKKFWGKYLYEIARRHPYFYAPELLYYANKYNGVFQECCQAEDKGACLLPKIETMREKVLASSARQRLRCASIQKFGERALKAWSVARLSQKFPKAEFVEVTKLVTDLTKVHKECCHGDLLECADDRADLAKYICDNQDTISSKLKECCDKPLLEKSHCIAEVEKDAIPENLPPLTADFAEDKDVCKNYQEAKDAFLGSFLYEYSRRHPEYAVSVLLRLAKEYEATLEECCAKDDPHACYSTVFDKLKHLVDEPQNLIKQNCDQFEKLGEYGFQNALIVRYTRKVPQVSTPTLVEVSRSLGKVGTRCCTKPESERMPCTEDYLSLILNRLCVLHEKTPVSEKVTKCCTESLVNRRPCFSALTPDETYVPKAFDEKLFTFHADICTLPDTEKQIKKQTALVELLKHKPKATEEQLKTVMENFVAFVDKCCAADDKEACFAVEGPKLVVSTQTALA
Chain of haemoglobin (P69905 2-142 limits assumed): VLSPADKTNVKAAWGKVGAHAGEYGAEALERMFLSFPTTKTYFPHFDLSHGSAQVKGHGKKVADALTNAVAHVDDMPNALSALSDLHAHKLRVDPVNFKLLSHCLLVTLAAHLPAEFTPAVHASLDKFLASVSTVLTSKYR
Chain of haemoglobin (P68871 2-147 limits assumed): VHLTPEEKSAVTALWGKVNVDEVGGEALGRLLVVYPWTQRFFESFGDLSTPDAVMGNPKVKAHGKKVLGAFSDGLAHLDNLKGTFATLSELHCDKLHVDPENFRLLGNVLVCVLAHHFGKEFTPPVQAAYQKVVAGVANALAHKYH

Relative iron uptake, 15 minutes [1]: 1 | Relative iron uptake, 60 minutes [1]: 1
Compound: [Cl][Fe]([Cl])[Cl] [FeCl3]

Relative iron uptake, 15 minutes [1]: 4.0 | Relative iron uptake, 60 minutes [1]: 1.8
Compound: O=C([O-])/C=C/C(=O)[O-].[Fe+2] [Fe^II fumarate]

Distribution ratio (concentration in erythrocytes/concentration in medium) ([2]; 1 mM): 0.08 | Relative iron uptake, 15 minutes [1]: 1.6 | Relative iron uptake, 60 minutes [1]: 0.8
Compound: O=C([O-])[C@H](O)[C@@H](O)[C@H](O)[C@H](O)CO.O=C([O-])[C@H](O)[C@@H](O)[C@H](O)[C@H](O)CO.[Fe+2] [Fe^II gluconate]
introduction of iron via the rat intestine (59Fe in organs), comparison [3]: more effective than the sulphate or the EDTA complex

Relative iron uptake, 15 minutes [1]: 2.4 | Relative iron uptake, 60 minutes [1]: 1.4 | level of take-up of iron by whole body counting ([4]; 10 mg dose, at 7 days): 13% | level of take-up of iron by whole body counting ([4]; 20 mg dose, at 7 days): 6%
Compound: O=S(=O)([O-])[O-].[Fe+2] [Fe^II sulphate]

thermodynamic stability constant ([5]; 3:1 complex): 30 | ability to bind to BSA [7]: little ability to bind to BSA | Distribution ratio (concentration in erythrocytes/concentration in medium) ([2]; 3 mM): 1.60 | concentration dependence of uptake ([1]; 0.5 to 10 mM, uptake increased linearly): does not show saturation kinetics | Iron uptake (n mole) ([1]; iron transferred into serosal contents of sac, basal uptake subtracted, by maltol/iron molar ratio): 30.0 n mole | time course of uptake ([1]; jejunal sac, up to 90 minutes): linear for a period 90 minutes | Relative iron uptake, 15 minutes [1]: 40 | Relative iron uptake, 60 minutes [1]: 5.8 | introduction of iron via the rat intestine (59Fe in organs), comparison ([3]; listed as maltol complex): more efficient than iron(III) EDTA | introduction of iron via the rat intestine (59Fe in organs), comparison ([3]; listed as neutral 3:1 maltol:iron(III) complex): markedly superior to iron(II) sulphate | 59Fe directed to the bone marrow (bulk, inferred) ([8]; in vivo, iv): approximately 90% | dose located in combined tissue of heart, liver and spleen ([8]; in vivo, iv): approximately 10% | dose located in the urine ([8]; in vivo, iv): less than 0.2% | loss of iron in the urine ([4]; daily urine samples over 3 days): essentially zero loss of iron | level of take-up of iron by whole body counting ([4]; 10 mg dose of iron, oral capsule, 14 day figure): 19% | level of take-up of iron by whole body counting ([4]; 20 mg dose of iron, oral capsules, 14 day figure): 11%
Compound: Cc1occc(=O)c1[O-].Cc1occc(=O)c1[O-].Cc1occc(=O)c1[O-].[Fe+3] [Fe^III (maltol)3]
binding of the complex to haemoglobin [6]: no evidence if found for binding | time for uptake to reach equilibrium ([2]; erythrocytes): about 15 minutes

Further lines, the compound ahead of its results:

Compound: O=C([O-])CCC(=O)[O-].[Fe+2] [Fe^II succinate]
Relative iron uptake, 15 minutes [1]: 2.0 | Relative iron uptake, 60 minutes [1]: 1.0

Compound: O=C([O-])CN(CCN(CC(=O)[O-])CC(=O)O)CC(=O)[O-].[Fe+3] [Fe^III EDTA]
levels of 59Fe in the intestine wall and blood ([3]; FIG. 3): extremely low | Net ^59Fe content (cpm/g) ([8]; Heart, i.v.): 209 cpm/g | Net total ^59Fe content (cpm) ([8]; Heart, i.v.): 3,248 cpm | Net ^59Fe content (cpm/g) ([8]; Kidney, i.v.): 1,134 cpm/g | Net total ^59Fe content (cpm) ([8]; Kidney, i.v.): 21,770 cpm | Net ^59Fe content (cpm/g) ([8]; Liver, i.v.): 261 cpm/g | Net total ^59Fe content (cpm) ([8]; Liver, i.v.): 19,600 cpm | Net ^59Fe content (cpm/g) ([8]; Skeletal muscle, i.v.): 95 cpm/g | Net ^59Fe content (cpm/g) ([8]; Spleen, i.v.): 162 cpm/g | Net total ^59Fe content (cpm) ([8]; Spleen, i.v.): 1,814 cpm | Net ^59Fe content (cpm/g) ([8]; Sternum (bone marrow), i.v.): 1,164 cpm/g | Net total ^59Fe content (cpm) ([8]; Urine (19 ml), i.v.): 1,180,900 cpm | Net ^59Fe content (cpm/g) ([8]; Urine (19 ml, 2 ml sample), i.v.): 62,156 cpm/g | rate constant of the elimination from the blood, linear phase of the regression ([8]; i.v.): 0.023 min⁻¹ | dose located in the urine ([8]; i.v., end of experiment): over 50% | plasma levels of radioactivity [9]: hardly exceeded the background level | Net ^59Fe content (cpm/g) ([10]; Heart): 188 cpm/g | Net total ^59Fe content (cpm) ([10]; Heart): 2,878 cpm | Net ^59Fe content (cpm/g) ([10]; Kidney): 1,762 cpm/g | Net total ^59Fe content (cpm) ([10]; Kidney): 19,913 cpm | Net ^59Fe content (cpm/g) ([10]; Liver): 499 cpm/g | Net total ^59Fe content (cpm) ([10]; Liver): 29,574 cpm | Net ^59Fe content (cpm/g) ([10]; Skeletal muscle): 117 cpm/g | Net ^59Fe content (cpm/g) ([10]; Spleen): 200 cpm/g | Net total ^59Fe content (cpm) ([10]; Spleen): 880 cpm | Net ^59Fe content (cpm/g) ([10]; Sternum (bone marrow)): 917 cpm/g | Net ^59Fe content (cpm/g) ([10]; Urine (5 ml sample)): 36,306 cpm/g | Net total ^59Fe content (cpm) ([10]; Urine (15 ml)): 544,596 cpm

Compound: Cc1occc(=O)c1O [maltol, 3-hydroxy-2-methyl-4-pyrone]
log β3 (affinity for iron) ([5]; ligand maltol, iron): 30 | Ksol ([11]; ligand, log Ksol must be greater than 0 to solubilise iron(III) hydroxide): 0.8 | logD [12]: -0.18

Compound: Fe^III ascorbate
Distribution ratio (concentration in erythrocytes/concentration in medium) ([2]; 1 mM): 0.12 | Relative iron uptake, 15 minutes [1]: 0.4 | Relative iron uptake, 60 minutes [1]: 0.8

Compound: Fe^III citrate
Distribution ratio (concentration in erythrocytes/concentration in medium) ([2]; 1 mM): 0.05 | Relative iron uptake, 15 minutes [1]: 2.0 | Relative iron uptake, 60 minutes [1]: 1.8

Compound: apotransferrin: iron-free transferrin, reference for log Ksol
log Ksol [11]: 6.0
